From ChEMBL document CHEMBL1158547, “KDR Kinase Inhibitor Isolated from the Mushroom Boletopsis leucomelas” (J Nat Prod, 2010)

Tests used:
[1] = target: Vascular endothelial growth factor receptor 2 (Homo sapiens, UniProt P35968); assay: Inhibition of KDR after 2 hrs incubation
[2] = system: HUVEC; assay: Antiproliferative activity against HUVEC after 72 hrs by WST8 dye reduction assay; assay type: functional, cell-based; conditions: Homo sapiens

Chain of Vascular endothelial growth factor receptor 2 (P35968 whole entry): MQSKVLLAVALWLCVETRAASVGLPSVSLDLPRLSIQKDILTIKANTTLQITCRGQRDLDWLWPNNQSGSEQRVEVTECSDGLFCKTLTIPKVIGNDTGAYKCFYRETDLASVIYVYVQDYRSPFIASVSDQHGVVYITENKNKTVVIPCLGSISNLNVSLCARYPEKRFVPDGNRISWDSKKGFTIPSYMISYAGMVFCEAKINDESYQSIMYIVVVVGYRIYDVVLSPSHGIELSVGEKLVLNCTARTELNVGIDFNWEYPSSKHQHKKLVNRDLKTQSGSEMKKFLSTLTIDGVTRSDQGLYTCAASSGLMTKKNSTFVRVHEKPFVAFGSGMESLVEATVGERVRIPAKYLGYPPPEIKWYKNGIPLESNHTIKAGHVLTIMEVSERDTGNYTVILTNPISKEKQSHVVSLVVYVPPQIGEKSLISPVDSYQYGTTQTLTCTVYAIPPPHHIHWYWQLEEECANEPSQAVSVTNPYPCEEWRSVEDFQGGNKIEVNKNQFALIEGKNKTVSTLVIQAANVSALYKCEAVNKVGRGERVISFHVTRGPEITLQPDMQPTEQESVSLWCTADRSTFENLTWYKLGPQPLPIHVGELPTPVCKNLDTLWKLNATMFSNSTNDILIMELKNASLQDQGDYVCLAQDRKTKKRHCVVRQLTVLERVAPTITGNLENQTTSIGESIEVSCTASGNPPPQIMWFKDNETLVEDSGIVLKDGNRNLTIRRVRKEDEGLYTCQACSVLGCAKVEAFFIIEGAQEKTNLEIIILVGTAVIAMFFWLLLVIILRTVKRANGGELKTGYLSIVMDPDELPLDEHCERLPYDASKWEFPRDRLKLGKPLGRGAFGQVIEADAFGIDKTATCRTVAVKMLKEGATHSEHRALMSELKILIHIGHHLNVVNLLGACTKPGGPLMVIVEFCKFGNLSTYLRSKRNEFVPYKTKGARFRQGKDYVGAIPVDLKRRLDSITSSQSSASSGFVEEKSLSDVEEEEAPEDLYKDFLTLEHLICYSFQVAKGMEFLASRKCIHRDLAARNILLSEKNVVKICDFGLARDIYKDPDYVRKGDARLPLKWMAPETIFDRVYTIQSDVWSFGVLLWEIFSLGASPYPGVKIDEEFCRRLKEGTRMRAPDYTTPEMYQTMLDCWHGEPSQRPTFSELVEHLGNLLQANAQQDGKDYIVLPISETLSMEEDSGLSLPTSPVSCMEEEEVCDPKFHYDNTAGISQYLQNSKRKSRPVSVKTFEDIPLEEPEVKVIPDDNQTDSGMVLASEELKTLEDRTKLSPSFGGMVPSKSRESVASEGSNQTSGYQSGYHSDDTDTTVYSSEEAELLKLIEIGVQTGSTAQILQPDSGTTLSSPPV

**Q.** Which results are given for `CC(=O)Oc1c(-c2ccc(O)c(O)c2)c(O)c(O)c2c1oc1cc(O)c(O)cc12` [BOLETOPSIN C]?
**A.** IC50 [1]: 70.7 µM; IC50 [2]: 9.04 µM
